# Source: ChEMBL document CHEMBL3045664, “Docking study on trametenolic acid B as a -glucosidase inhibitor” (Med Chem Res, 2012)
# pIC50: −log10 of the molar value.
# Molecular target: Alpha-glucosidase MAL62 (Saccharomyces cerevisiae, UniProt P07265)
# Experiment: Inhibition of Saccharomyces cerevisiae (baker's yeast) alpha-glucosidase using p-nitrophenyl glucopyranoside as substrate preincubated for 30 min before substrate addition measured after 1 hr by spectrophotometric analysis
# Sequence of Alpha-glucosidase MAL62 (P07265 whole entry): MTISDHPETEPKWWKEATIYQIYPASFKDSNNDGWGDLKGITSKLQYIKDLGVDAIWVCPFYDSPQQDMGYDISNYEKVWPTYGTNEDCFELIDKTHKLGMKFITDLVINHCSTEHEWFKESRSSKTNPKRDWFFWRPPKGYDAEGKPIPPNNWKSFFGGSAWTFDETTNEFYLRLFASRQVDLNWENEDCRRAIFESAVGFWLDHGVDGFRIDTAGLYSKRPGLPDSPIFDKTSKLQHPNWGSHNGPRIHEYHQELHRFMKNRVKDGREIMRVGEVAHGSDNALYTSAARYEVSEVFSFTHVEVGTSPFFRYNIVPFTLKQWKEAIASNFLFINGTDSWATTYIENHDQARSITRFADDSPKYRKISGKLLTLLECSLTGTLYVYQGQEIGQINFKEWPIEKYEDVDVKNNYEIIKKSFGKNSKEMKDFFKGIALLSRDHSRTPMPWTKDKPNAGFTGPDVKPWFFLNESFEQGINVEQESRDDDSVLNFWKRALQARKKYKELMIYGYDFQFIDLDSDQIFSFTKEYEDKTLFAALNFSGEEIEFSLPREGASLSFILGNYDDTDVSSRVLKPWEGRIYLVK
smiles,measurement,value
CC(C)=CCC[C@@H](C(=O)O)[C@H]1CC[C@@]2(C)C3=C(CC[C@]12C)[C@@]1(C)CC[C@H](O)C(C)(C)[C@@H]1CC3 [TRAMETENOLIC ACID],pIC50,4.77
